The source of these data is patent publication US9993002B2, “1,2,3-thiadiazol-5yl-urea derivatives, use thereof for regulating plant senescence and preparations containing these derivatives” (USTAV EXPERIMENTALNI BOTANIKY AV CR, V.V.I., priority 2014, dated 2018).

Data set [1] deals with detached leaf segments of Triticum aestivum cv. Hereward. Put plainly: Senescence bioassay on wheat leaf segments in dark conditions. Conditions: dark, 96 h, 25° C., chlorophyll absorbance 665 nm, read-out: Senescence bioassay (IC50). How it is done: (§1) Seeds of winter wheat, Triticum aestivum cv. Hereward, were washed under running water for 24 hours and then sown on perlite soaked with Hogland's solution. They were placed in the growth chamber at 25° C. with a 16/8 h light period at 50 μmol·m^−2·s^−1. After 7 days, the first leaf was fully developed and the second leaf had started to grow. A tip section of the first leaf, approximately 4 cm long, was removed from 4 seedlings and trimmed slightly to a combined weight of 100 mg. The basal ends of the four leaf tips were placed into the 96-wells plate containing 150 μL of the tested derivative solution each. The entire plate was inserted into a plastic box lined with paper tissues soaked in distilled water to prevent leaf sections from drying out. After 96 h incubation in the dark at 25° C., the leaves were removed and chlorophyll extracted by heating at 80° C. for 10 min in 5 mL of 80% ethanol (v/v). The sample volume was then restored to 5 mL by the addition of 80% ethanol (v/v). The absorbance of the extract was recorded at 665 nm. In addition, chlorophyll extracts from fresh leaves and leaf tips incubated in deionised water were measured. The results are means of five replicates and the entire test was repeated at least twice. […] The compounds to be tested were dissolved in dimethylsulfoxide (DMSO) and the solution brought up to 10^−3 M with distilled water. […] The IC50 values were determined for standard (BAP) and novel tested compounds.

Data set [2] concerns detached leaves of Triticum aestivum cv. Hereward. Put plainly: Membrane lipid peroxidation (MDA, TBA method) in detached wheat leaves in the dark. Conditions: for MDA: four days in the dark. How it is done:
A typical symptom associated with senescence as a direct consequence of increased reactive oxygen species is membrane lipid peroxidation which produces malondialdehyde (MDA). Therefore the levels of MDA, a decomposition product of lipid peroxidation, were measured in detached wheat leaves that were exposed to the prepared novel derivatives or BAP for four days in the dark as described in Example 7. MDA levels were measured using a thiobarbituric acid (TBA) method. In detail, 100 mg of fresh plant material was homogenized by high speed shaking in a ball mill (MM301, Retsch, Germany) with 1 mL of 70% methanol. The crude extract was centrifuged at 10,000×g for 5 min, and 100 μL aliquot of supernatant was vortexed with 100 μL of 0.5% (w/v) TBA containing 0.1% (w/v) trichloroacetic acid, and the resulting solution was then incubated for 30 min at 95° C. The samples were quickly cooled on ice and centrifuged for 5 min at 1000 g. The absorbance of supernatant was measured at 532 nm with background subtraction at 600 nm and the amount of MDA-TBA complex was calculated from the coefficient of absorbance 155 mM^−1 cm^−1.

Data set [3] has as its system detached leaf segments of Triticum aestivum cv. Hereward. The data set can be described thus: Senescence bioassay on wheat leaf segments in dark/light conditions. Conditions: foliar, 168 h, read-out: Senescence bioassay (IC50). How it is done:
as §1
The ability of the novel compounds to retard chlorophyll degradation in detached wheat leaves was tested also in the light conditions. The experiment was performed as described in Example 7 with modifications as follows—the incubation of the leaves with the compounds was done in the dark/light conditions 8/16 (light—100 μmol·m^−2·s^−1) at 22° C. for 7 days. […] The newly prepared substituted 1,2,3-thiadiazol-5-yl urea derivatives of the invention are much stronger anti-senescent compounds in comparison to the BAP in retarding senescence under optimal (dark/light) conditions.

Data set [4] deals with Arabidopsis thaliana (wild-type Col-0). The data set can be described thus: Root growth and lateral root formation of Arabidopsis. Format: in vivo. Conditions: 10 nM; for Lateral root number / Primary root lenght: two weeks after transfer. The method, then:
To investigate in vivo effect of the new derivatives on the root growth and development, seeds of Arabidopsis thaliana (wild-type Col-0) were surface sterilized and sown on vertical plates on half-strength Murashige-Skoog medium (supplied with 0.1% sucrose and 6 g/L phytagel) containing 10 nM BAP or 10 nM 1,2,3-thiadiazol-5-yl-urea derivative, or 0.01% DMSO (solvent control). After vernalization (4 days in the dark, 4° C.) plates were transferred into the growth chamber (22° C., 16/8 light/dark). Two weeks after transfer, seedlings were photographed and root elongation and lateral root formation was scored using Scion image software (Scion Corp., Frederick, Md., USA). At least 40 plants were measured for each treatment.

The test system of another data set is wheat leaves. The data set can be described thus: Ethylene production (defoliating activity) assay. Set-up: species or system Triticum aestivum. Conditions: 10 μM; for Ethylene produced: 96 h in the dark at 25° C., control 270 (±15). The method, then: We investigated the effect of the compounds of the invention on ethylene production in wheat leaves. The leaves were obtained as described in Example 8, placed in 5 mL glass vials and immersed at 10 μM solutions of tested compounds of the invention or TDZ. Distilled water was used as a control treatment. After 96 h incubation in the dark at 25° C., 1 mL of air was taken from the vials and content of ethylene in it was determined using gas chromatography with the flame ionization detector (GC-FID) method described by Fišerová et al. (Fišerová H, Kula E, Klemš M, Reinöhl V (2001) Phytohormones as indicators of the degree of damage in birch (Betula pendula). Biológia 56: 405-409).

The nature of data set [5]: Toxicity towards human skin fibroblasts (Calcein AM assay). The data set is classed as cell-based. How it is done:
Cytotoxicity of the compounds to human skin fibroblasts (BJ cell line) was determined in a standard Calceinovém AM test. Cells were maintained in plastic tissue culture flasks and grown in Dulbecco's modified Eagle's medium for cell culture (DMEM) at 37° C. in 5% CO2 and 100% humidity. Cells were placed into 96-well microtiter plates (Nunc, Denmark) and after 12 hours pre-incubation, the tested compound was added to a final concentration ranging from […]. Cells were incubated for 72 hours. At the end of incubation period Calcein AM was added in PBS to a final concentration of […]. After 1 hour of incubation fluorescence was measured at 485/538 nm (ex/em wavelength) using Fluoroskan Ascent (Labsystems, Finland). IC50 values (the concentration causing reduction of calcein AM conversion to 50%) were calculated from the curves obtained. All experiments were repeated four times with a maximum deviation of 15%. Due to the limited solubility of substances in water, all the tested compounds were dissolved in DMSO and diluted with water to a final concentration.

Setting [6] is: dark/light 8/16, 22° C., 7 days.

The term IC50 denotes the concentration at which inhibition is half-maximal. As usually defined, the CC50 is the concentration giving 50% cytotoxicity.

On to “1-(3,4-dihydro-2H-pyran-2-yl-methyl)-3-[1,2,3]thiadiazol-5-yl-urea [Compound 82]”, for which, in data set [1], the IC50 was 25 µM.
Same read-out and setting: next, “1-(thiophen-2-yl-methyl)-3-[1,2,3]thiadiazol-5-yl-urea [Compound 76]”: 32 µM; “1-(thiophen-2-yl-methyl)-3-[1,2,3]thiadiazol-5-yl-urea [Compound 78]”: 45 µM.
For `c1ccc(CNc2ncnc3nc[nH]c23)cc1` [6-benzylaminopurine (BAP), 6-benzylaminopurine, reference compound], the “effect on peroxidation of membrane lipids (in words)” value in data set [2] (compared to untreated control) is listed as “does not decrease the peroxidation of membrane lipids significantly”. For the same molecule, the MDA in data set [2] was 19.1 (±1.7) nmol/g FW. In addition, in data set [1] (Triticum aestivum, foliar), the IC50 turned out to be 155 µM. The IC50 in data set [3] (setting [6]) was determined as 123 µM. In data set [4], the “root development (in words)” value was “severely and significantly retarded”; the Lateral root number is on record as 3.6 (±2); the Primary root lenght is listed as 15 (±5) mm.
For `O=C(NCCO)Nc1cnns1` [Compound 1, 1-(2-hydroxy-ethyl)-3-[1,2,3]thiadiazol-5-yl-urea], in data set [1] (Triticum aestivum, foliar), the IC50 is 26 µM.
Take `O=C(NCCCO)Nc1cnns1` [Compound 2, 1-(3-hydroxy-propyl)-3-[1,2,3]thiadiazol-5-yl-urea]: the MDA in data set [2] was 16.4 (±1.6) nmol/g FW. In addition, the Ethylene produced in the data set on wheat leaves was 293 (±21) nL/g FW. Besides, the IC50 in data set [1] (Triticum aestivum, foliar) came out at 9.1 µM. Further, the IC50 in data set [3] (setting [6]) was 0.31 µM. In addition, in data set [4], the Lateral root number is recorded as 12 (±6) and the Primary root lenght was 39 (±9) mm. Besides, the CC50 at 72 h in data set [5] is more than 100 µM.
Consider `COCCCNC(=O)Nc1cnns1` [Compound 7, 1-(3-methoxy-propyl)-3-[1,2,3]thiadiazol-5-yl-urea], for which the MDA in data set [2] is reported as 14.4 (±0.8) nmol/g FW. Also, the Ethylene produced in the data set with wheat leaves is 312 (±18) nL/g FW. For the same molecule, the IC50 in data set [1] (Triticum aestivum, foliar) was 11.4 µM. Also, the IC50 in data set [3] (setting [6]) came out at 0.4 µM. For the same molecule, in data set [4], the Lateral root number is reported as 14 (±10) and the Primary root lenght is on record as 40 (±10) mm. Moreover, the CC50 at 72 h in data set [5] was more than 100 µM.
As to `COCCCCNC(=O)Nc1cnns1` [Compound 8, 1-(4-methoxy-butyl)-3-[1,2,3]thiadiazol-5-yl-urea], the IC50 in data set [1] (Triticum aestivum, foliar) is 25.5 µM.
Same read-out and setting: the figure for `COCCCCCNC(=O)Nc1cnns1` [Compound 9, 1-(5-methoxy-pentyl)-3-[1,2,3]thiadiazol-5-yl-urea] is 31 µM; for `COCCCCCCNC(=O)Nc1cnns1` [Compound 10, 1-(6-methoxy-hexyl)-3-[1,2,3]thiadiazol-5-yl-urea] it is 45 µM.
For the molecule `COC(CNC(=O)Nc1cnns1)OC` [Compound 16, 1-(2,2-dimethoxy-ethyl)-3-[1,2,3]thiadiazol-5-yl-urea], the MDA in data set [2] is on record as 11.6 (±1.2) nmol/g FW. In the data set with wheat leaves, the Ethylene produced was 267 (±23) nL/g FW. The IC50 in data set [1] (Triticum aestivum, foliar) turned out to be 2.9 µM. Besides, the IC50 in data set [3] (setting [6]) was found to be 0.16 µM. Further, in data set [4], the Lateral root number is on record as 19 (±9) and the Primary root lenght was 45 (±9) mm. In data set [5], the 50% cytotoxic concentration (CC50) at 72 h was more than 100 µM.
Take `C/C(=C\CNC(=O)Nc1cnns1)CO` [Compound 20, 1-((E)-4-hydroxy-3-methyl-but-2-enyl)-3-[1,2,3]thiadiazol-5-yl-urea]: the MDA in data set [2] was 15.8 (±0.7) nmol/g FW. Besides, in the data set on wheat leaves (96 h), the “effect on ethylene evolution compared to control (in words)” value is on record as “inhibition of ethylene evolution”. Further, in the data set on wheat leaves, the Ethylene produced is recorded as 254 (±22) nL/g FW. Moreover, the IC50 is 12.6 µM in data set [1] (Triticum aestivum, foliar) and 0.61 µM in data set [3] (setting [6]). Moreover, in data set [4], the Lateral root number is recorded as 11 (±6). In data set [4], the Primary root lenght is 32 (±9) mm. The CC50 at 72 h in data set [5] is more than 100 µM.
In the case of `CC(C)=CCNC(=O)Nc1cnns1` [Compound 21, 1-(3-methyl-but-2-enyl)-3-[1,2,3]thiadiazol-5-yl-urea], the concentration for half-maximal inhibition (IC50) in data set [1] (Triticum aestivum, foliar) worked out at 97 µM.
On to `CC(O)CNC(=O)Nc1cnns1` (stereo not shown) [Compound 25, 1-(2-Hydroxy-propyl)-3-[1,2,3]thiadiazol-5-yl-urea], for which the MDA in data set [2] is 12.6 (±0.83) nmol/g FW. The Ethylene produced in the data set with wheat leaves was 281 (±31) nL/g FW. For the same molecule, the IC50 in data set [1] (Triticum aestivum, foliar) worked out at 3.5 µM. Also, in data set [3] (setting [6]), the IC50 was determined as 0.1 µM. Further, in data set [4], the Lateral root number was 12 (±8) and the Primary root lenght was 35 (±0.8) mm. For the same molecule, in data set [5], the CC50 at 72 h is more than 100 µM.
Turning to `O=C(NCCS)Nc1cnns1` [Compound 34, 1-(2-thio-ethyl)-3-[1,2,3]thiadiazol-5-yl-urea], the IC50 in data set [1] was determined as 18 µM.
In the case of `O=C(NCCCS)Nc1cnns1` [Compound 35, 1-(3-thio-propyl)-3-[1,2,3]thiadiazol-5-yl-urea], in data set [1], the IC50 worked out at 12 µM.
Consider `CSCCNC(=O)Nc1cnns1` [Compound 39, 1-(2-methylthio-ethyl)-3-[1,2,3]thiadiazol-5-yl-urea], for which, in data set [1] (Triticum aestivum, foliar), the IC50 amounted to 3.1 µM.
Regarding `CSCCCCCNC(=O)Nc1cnns1` [Compound 42, 1-(5-methylthio-pentyl)-3-[1,2,3]thiadiazol-5-yl-urea], the IC50 in data set [1] (Triticum aestivum, foliar) was found to be 10.5 µM.
As for `C#CCNC(=O)Nc1cnns1` [Compound 55, 1-prop-2-ynyl-3-[1,2,3]thiadiazol-5-yl-urea], the MDA in data set [2] is reported as 14.1 (±1.1) nmol/g FW. Further, the IC50 in data set [1] (Triticum aestivum, foliar) is 22 µM. Also, in data set [4], the Lateral root number is on record as 15 (±8) and the Primary root lenght was 40 (±10) mm. The CC50 at 72 h in data set [5] is more than 100 µM.
In the case of `O=C(NCCCCCCBr)Nc1cnns1` [Compound 74, 1-(6-bromo-hexyl)-3-[1,2,3]thiadiazol-5-yl-urea], the “level of membrane lipid peroxidation during dark senescence reduced to” value in data set [2] (compared to untreated control) worked out at 50.2%.
Turning to `O=C(Nc1ccccc1)Nc1cnns1` [TDZ, thidiazuron, reference compound], in the data set with wheat leaves (96 h), the “elevation of ethylene production compared to untreated control” value came out at 133% and the “times higher production of ethylene than the novel tested compounds” value was “at least 5 times”. The Ethylene produced with wheat leaves is given as 628 (±45) nL/g FW. In addition, in data set [3], the half-maximal inhibitory concentration (IC50) was 1.1 µM. Further, in data set [4], the Lateral root number is recorded as 2.1 (±2) and the Primary root lenght is listed as 10 (±4) mm.
